Test results from ChEMBL document CHEMBL3112479, “Synthesis and evaluation of the antimicrobial activities of 3-((5-phenyl-1,3,4-oxadiazol-2-yl)methyl)-2-thioxothiazolidin-4-one derivatives” (2014).
Values after ≈ are worked out from the molar mass of the structure shown.

Legend:
Staphylococcus aureus [1] = test: Antimicrobial activity against quinolone-resistant Staphylococcus aureus clinical isolate 3505 after 20 hrs by two-fold serial dilution technique; type: functional; settings: isolate 3505, 20 h
Salmonella typhimurium [2] = test: Antimicrobial activity against Salmonella typhimurium 1926 after 20 hrs by two-fold serial dilution technique; type: functional, Salmonella enterica subsp. enterica serovar Typhimurium; settings: Salmonella enterica, 1926, 20 h
Pseudomonas aeruginosa [3] = test: Antimicrobial activity against Pseudomonas aeruginosa 2742 after 20 hrs by two-fold serial dilution technique; type: functional; settings: Pseudomonas aeruginosa, 2742, 20 h
Candida albicans = test: Antimicrobial activity against Candida albicans 7535 after 20 hrs by two-fold serial dilution technique; type: functional; settings: Candida albicans, 7535, 20 h
Staphylococcus aureus [4] = test: Antimicrobial activity against Staphylococcus aureus 209 after 20 hrs by two-fold serial dilution technique; type: functional; settings: Staphylococcus aureus, 209, 20 h
Staphylococcus aureus [5] = test: Antimicrobial activity against Staphylococcus aureus 503 after 20 hrs by two-fold serial dilution technique; type: functional; settings: Staphylococcus aureus, 503, 20 h
Escherichia coli [6] = test: Antimicrobial activity against Escherichia coli KCTC 1924 after 20 hrs by two-fold serial dilution technique; type: functional; settings: KCTC 1924, 20 h
Staphylococcus aureus [7] = test: Antimicrobial activity against quinolone-resistant Staphylococcus aureus clinical isolate 3519 after 20 hrs by two-fold serial dilution technique; type: functional; settings: isolate 3519, 20 h
Staphylococcus aureus [8] = test: Antimicrobial activity against methicillin-resistant Staphylococcus aureus clinical isolate 3506 after 20 hrs by two-fold serial dilution technique; type: functional; settings: isolate 3506, 20 h
Salmonella typhimurium [9] = test: Antimicrobial activity against Salmonella typhimurium 2421 after 20 hrs by two-fold serial dilution technique; type: functional, Salmonella enterica subsp. enterica serovar Typhimurium; settings: Salmonella enterica, 2421, 20 h
Streptococcus mutans = test: Antimicrobial activity against Streptococcus mutans 3065 after 20 hrs by two-fold serial dilution technique; type: functional; settings: Streptococcus mutans, 3065, 20 h
Staphylococcus aureus [10] = test: Antimicrobial activity against Staphylococcus aureus RN4220 after 20 hrs by two-fold serial dilution technique; type: functional; settings: RN4220, 20 h
Staphylococcus aureus [11] = test: Antimicrobial activity against methicillin-resistant Staphylococcus aureus clinical isolate 3167 after 20 hrs by two-fold serial dilution technique; type: functional; settings: isolate 3167, 20 h
Pseudomonas aeruginosa [12] = test: Antimicrobial activity against Pseudomonas aeruginosa 2004 after 20 hrs by two-fold serial dilution technique; type: functional; settings: Pseudomonas aeruginosa, 2004, 20 h
Escherichia coli [13] = test: Antimicrobial activity against Escherichia coli CCARM 1356 after 20 hrs by two-fold serial dilution technique; type: functional; settings: CCARM 1356, 20 h

SMILES	MIC (Staphylococcus aureus [1]) [µg/mL]	MIC (Salmonella typhimurium [2]) [µg/mL]	MIC (Pseudomonas aeruginosa [3]) [µg/mL]	MIC (Candida albicans) [µg/mL]	MIC (Staphylococcus aureus [4]) [µg/mL]	MIC (Staphylococcus aureus [5]) [µg/mL]	MIC (Escherichia coli [6]) [µg/mL]	MIC (Staphylococcus aureus [7]) [µg/mL]	MIC (Staphylococcus aureus [8]) [µg/mL]	MIC (Salmonella typhimurium [9]) [µg/mL]	MIC (Streptococcus mutans) [µg/mL]	MIC (Staphylococcus aureus [10]) [µg/mL]	MIC (Staphylococcus aureus [11]) [µg/mL]	MIC (Pseudomonas aeruginosa [12]) [µg/mL]	MIC (Escherichia coli [13]) [µg/mL]
O=C(O)c1ccc(/C=C2\SC(=S)N(Cc3nnc(-c4cccc(Cl)c4)o3)C2=O)cc1	16 (≈ 34.9 µM)	> 128	> 128	> 64	16 (≈ 34.9 µM)	16 (≈ 34.9 µM)	> 128	16 (≈ 34.9 µM)	32 (≈ 69.9 µM)	> 128	16 (≈ 34.9 µM)	8 (≈ 17.5 µM)	8 (≈ 17.5 µM)	> 128	> 128
CCn1cc(C(=O)O)c(=O)c2cc(F)c(N3CCNCC3)cc21 [NORFLOXACIN]	> 64							> 64	4 (≈ 12.5 µM)				8 (≈ 25.1 µM)		
O=C1CSC(=S)N1Cc1nnc(-c2ccc(Cl)cc2)o1	64 (≈ 196 µM)	32 (≈ 98.2 µM)	> 128	32 (≈ 98.2 µM)	32 (≈ 98.2 µM)	64 (≈ 196 µM)	16 (≈ 49.1 µM)	64 (≈ 196 µM)	32 (≈ 98.2 µM)	128 (≈ 393 µM)	16 (≈ 49.1 µM)	32 (≈ 98.2 µM)	32 (≈ 98.2 µM)	> 128	> 128
O=C1CSC(=S)N1Cc1nnc(-c2ccc(Br)cc2)o1	64 (≈ 173 µM)	64 (≈ 173 µM)	> 128	64 (≈ 173 µM)	64 (≈ 173 µM)	64 (≈ 173 µM)	64 (≈ 173 µM)	64 (≈ 173 µM)	64 (≈ 173 µM)	128 (≈ 346 µM)	16 (≈ 43.2 µM)	64 (≈ 173 µM)	64 (≈ 173 µM)	> 128	> 128
O=C1CSC(=S)N1Cc1nnc(-c2cccc(Br)c2)o1	32 (≈ 86.4 µM)	32 (≈ 86.4 µM)	> 128	32 (≈ 86.4 µM)	16 (≈ 43.2 µM)	32 (≈ 86.4 µM)	16 (≈ 43.2 µM)	32 (≈ 86.4 µM)	32 (≈ 86.4 µM)	128 (≈ 346 µM)	16 (≈ 43.2 µM)	32 (≈ 86.4 µM)	16 (≈ 43.2 µM)	> 128	> 128
COc1c(N2C[C@@H]3CCCN[C@@H]3C2)c(F)cc2c(=O)c(C(=O)O)cn(C3CC3)c12 [MOXIFLOXACIN]		1 (≈ 2.49 µM)		0.5 (≈ 1.25 µM)		2 (≈ 4.98 µM)				0.5 (≈ 1.25 µM)	0.25 (≈ 0.623 µM)	0.25 (≈ 0.623 µM)		2 (≈ 4.98 µM)	128 (≈ 319 µM)
Cc1ccc(-c2nnc(CN3C(=O)CSC3=S)o2)cc1	64 (≈ 210 µM)	64 (≈ 210 µM)	> 128	64 (≈ 210 µM)	64 (≈ 210 µM)	64 (≈ 210 µM)	64 (≈ 210 µM)	64 (≈ 210 µM)	64 (≈ 210 µM)	128 (≈ 419 µM)	64 (≈ 210 µM)	64 (≈ 210 µM)	64 (≈ 210 µM)	> 128	> 128
Cc1ccccc1-c1nnc(CN2C(=O)CSC2=S)o1	32 (≈ 105 µM)	32 (≈ 105 µM)	> 128	64 (≈ 210 µM)	16 (≈ 52.4 µM)	64 (≈ 210 µM)	16 (≈ 52.4 µM)	64 (≈ 210 µM)	64 (≈ 210 µM)	128 (≈ 419 µM)	16 (≈ 52.4 µM)	32 (≈ 105 µM)	32 (≈ 105 µM)	> 128	> 128
O=C1CSC(=S)N1[C@@H](Cc1ccccc1)c1nnc(-c2ccccc2)o1	16 (≈ 41.9 µM)	> 128	> 128	> 64	> 64	> 64	> 128	16 (≈ 41.9 µM)	16 (≈ 41.9 µM)	> 128	8 (≈ 21 µM)	16 (≈ 41.9 µM)	16 (≈ 41.9 µM)	> 128	> 128
O=C(O)c1ccc(/C=C2\SC(=S)N([C@@H](Cc3ccccc3)c3nnc(-c4cccc(Cl)c4)o3)C2=O)cc1	2 (≈ 3.65 µM)	> 128	> 128	> 64	> 64	> 64	> 128	4 (≈ 7.3 µM)	4 (≈ 7.3 µM)	> 128	2 (≈ 3.65 µM)	2 (≈ 3.65 µM)	2 (≈ 3.65 µM)	> 128	> 128
Cc1cccc(-c2nnc(CN3C(=O)CSC3=S)o2)c1	32 (≈ 105 µM)	64 (≈ 210 µM)	> 128	64 (≈ 210 µM)	16 (≈ 52.4 µM)	32 (≈ 105 µM)	16 (≈ 52.4 µM)	32 (≈ 105 µM)	32 (≈ 105 µM)	128 (≈ 419 µM)	8 (≈ 26.2 µM)	32 (≈ 105 µM)	32 (≈ 105 µM)	> 128	> 128
Cc1cccc(-c2nnc(CN3C(=O)/C(=C/c4ccc(C(=O)O)cc4)SC3=S)o2)c1	32 (≈ 73.1 µM)	> 128	> 128	> 64	32 (≈ 73.1 µM)	32 (≈ 73.1 µM)	> 128	32 (≈ 73.1 µM)	32 (≈ 73.1 µM)	> 128	16 (≈ 36.6 µM)	16 (≈ 36.6 µM)	32 (≈ 73.1 µM)	> 128	> 128
O=C(O)c1ccc(/C=C2\SC(=S)N(Cc3nnc(-c4cccc(Br)c4)o3)C2=O)cc1	16 (≈ 31.8 µM)	> 128	> 128	> 64	16 (≈ 31.8 µM)	16 (≈ 31.8 µM)	> 128	16 (≈ 31.8 µM)	16 (≈ 31.8 µM)	> 128	16 (≈ 31.8 µM)	16 (≈ 31.8 µM)	8 (≈ 15.9 µM)	> 128	> 128
O=C1CSC(=S)N1[C@@H](Cc1ccccc1)c1nnc(-c2cccc(Br)c2)o1	2 (≈ 4.34 µM)	> 128	> 128	> 64	> 64	> 64	> 128	4 (≈ 8.69 µM)	4 (≈ 8.69 µM)	> 128	2 (≈ 4.34 µM)	4 (≈ 8.69 µM)	2 (≈ 4.34 µM)	> 128	> 128
O=C1CSC(=S)N1Cc1nnc(-c2ccccc2Br)o1	32 (≈ 86.4 µM)	64 (≈ 173 µM)	> 128	64 (≈ 173 µM)	16 (≈ 43.2 µM)	64 (≈ 173 µM)	16 (≈ 43.2 µM)	32 (≈ 86.4 µM)	32 (≈ 86.4 µM)	128 (≈ 346 µM)	16 (≈ 43.2 µM)	32 (≈ 86.4 µM)	16 (≈ 43.2 µM)	> 128	> 128
Cc1cccc(-c2nnc([C@H](Cc3ccccc3)N3C(=O)/C(=C/c4ccc(C(=O)O)cc4)SC3=S)o2)c1	2 (≈ 3.79 µM)	> 128	> 128	> 64	> 64	> 64	> 128	4 (≈ 7.58 µM)	4 (≈ 7.58 µM)	> 128	4 (≈ 7.58 µM)	2 (≈ 3.79 µM)	2 (≈ 3.79 µM)	> 128	> 128
Cc1onc(-c2ccccc2)c1C(=O)N[C@@H]1C(=O)N2[C@@H]1SC(C)(C)[C@@H]2C(=O)O [OXACILLIN]	1 (≈ 2.49 µM)							1 (≈ 2.49 µM)	> 64				> 64		
O=C1CSC(=S)N1Cc1nnc(-c2ccccc2)o1	64 (≈ 220 µM)	64 (≈ 220 µM)	> 128	64 (≈ 220 µM)	32 (≈ 110 µM)	64 (≈ 220 µM)	64 (≈ 220 µM)	64 (≈ 220 µM)	64 (≈ 220 µM)	128 (≈ 439 µM)	64 (≈ 220 µM)	64 (≈ 220 µM)	64 (≈ 220 µM)	> 128	> 128
